In the assay the target is T1, BTK (Homo sapiens, UniProt Q06187).
T1 construct: endogenous in cells; host or cells: Ramos cells
Description: BTK cell degradation in Ramos cells (total BTK ELISA). In kind it is cell-based. As to conditions: 16 h incubation, FastScan total BTK ELISA. On the procedure:
Ramos cells are treated with compounds diluted in 0.1% DMSO, dilution is done according to the following protocol: (1) make 1000x stock solution in DMSO from 10 mM by 5-fold dilution, total 7 doses were included; (2) make 10x solution in cell culture medium by transferring 1 ul 1000x stock solution into 99 ul medium; (3) 11 ul of 10× solution is added to cells and incubate for 16 h.
Cells in 96 well plate are harvested by centrifugation (1200 rpm), and wash once with ice-cold PBS. Then, 100 ul 1×cell extraction buffer is added in each well. The cells are placed on a shaker for 20 min at 4° C.; 5 ul lysate is transferred to 45 ul of 1×cell extraction buffer in ELISA plate, and 50 ul of the antibody cocktail is added in each well; seal the plate and incubate 1 hour at room temperature on a plate shaker; medium is discarded from the plate, tap the plated on a paper towel, wash 3×200 ul ELISA wash buffer; add 100 ul of TMB to each well and incubate the plate in the dark for 15 min at room temperature on a shaker; add 100 ul of STOP solution to each well; read absorbance at 450 nm. The BTK ELISA assay was performed using FastScan total BTK ELISA kit (Cell Signaling Cat #36609).
In general terms: In an ELISA, binding on a coated surface is turned into a signal by an enzyme label.

From patent US20220281876A1, “DEGRADATION OF BRUTON'S TYROSINE KINASE (BTK) BY CONJUGATION OF BTK INHIBITORS WITH E3 LIGASE LIGAND AND METHODS OF USE” (BEIGENE, LTD., priority 2019, published 2022) come the findings set out here.

Structures are written as SMILES.

T1 sequence (Q06187 whole entry): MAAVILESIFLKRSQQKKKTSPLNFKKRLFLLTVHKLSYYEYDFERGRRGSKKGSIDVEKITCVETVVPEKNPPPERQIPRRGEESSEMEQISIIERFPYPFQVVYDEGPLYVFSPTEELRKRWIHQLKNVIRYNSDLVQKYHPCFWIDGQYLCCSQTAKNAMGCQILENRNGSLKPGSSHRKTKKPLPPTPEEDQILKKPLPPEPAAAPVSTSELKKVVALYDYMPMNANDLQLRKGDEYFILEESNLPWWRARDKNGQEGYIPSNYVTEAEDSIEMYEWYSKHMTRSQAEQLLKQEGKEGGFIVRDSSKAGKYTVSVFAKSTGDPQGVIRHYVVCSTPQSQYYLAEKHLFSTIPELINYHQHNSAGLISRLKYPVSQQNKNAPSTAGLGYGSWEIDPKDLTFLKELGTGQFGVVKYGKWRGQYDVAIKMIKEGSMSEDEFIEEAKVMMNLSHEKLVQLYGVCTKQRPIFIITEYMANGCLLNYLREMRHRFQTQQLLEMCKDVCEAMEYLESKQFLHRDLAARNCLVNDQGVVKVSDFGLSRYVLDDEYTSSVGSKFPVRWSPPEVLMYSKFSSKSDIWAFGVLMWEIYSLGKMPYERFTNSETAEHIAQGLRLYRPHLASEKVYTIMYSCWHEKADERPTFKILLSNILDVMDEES

What is called DC50 is the midpoint of the concentration-degradation curve. Low values mean degradation at low concentration, high ones degradation only at high concentration. For `NC(=O)c1c(-c2ccc(Oc3ccccc3)cc2)nn2c1NCC[C@H]2C1CCN(C(=O)COCCOCCOCCOCCNC(=O)COc2cccc3c2CN(C2CCC(=O)NC2=O)C3=O)CC1` (stereo partly drawn) [Example 29, (7S)-7-(1-(1-((2-(2,6-dioxopiperidin-3-yl)-1-oxoisoindolin-4-yl)oxy)-2-oxo-6,9, 12, 15-tetraoxa-3-azaheptadecan-17-oyl)piperidin-4-yl)-2-(4-phenoxyphenyl)-4,5,6,7-tetrahydropyrazolo[1,5-a]pyrimidine-3-carboxamide], half-maximal degradation (DC50) was put at 458 nM.

As to `NC(=O)c1c(-c2ccc(Oc3ccccc3)cc2)nn2c1NCC[C@H]2C1CCN(C(=O)CCCCNc2cccc3c2C(=O)N(C2CCC(=O)NC2=O)C3=O)CC1` (stereo partly drawn) [Example 31, (7S)-7-(1-(5-((2-(2,6-dioxopiperidin-3-yl)-1,3-dioxoisoindolin-4-yl)amino)pentanoyl)piperidin-4-yl)-2-(4-phenoxyphenyl)-4,5,6,7-tetrahydropyrazolo[1,5-a]pyrimidine-3-carboxamide], the DC50 is above 10000 nM.

Turning to `NC(=O)c1c(-c2ccc(Oc3ccccc3)cc2)nn2c1NCC[C@H]2C1CCN(C(=O)CCCNc2cccc3c2C(=O)N(C2CCC(=O)NC2=O)C3=O)CC1` (stereo partly drawn) [Example 32, (7S)-7-(1-(4-((2-(2,6-dioxopiperidin-3-yl)-1,3-dioxoisoindolin-4-yl)amino)butanoyl)piperidin-4-yl)-2-(4-phenoxyphenyl)-4,5,6,7-tetrahydropyrazolo[1,5-a]pyrimidine-3-carboxamide], the half-maximal degradation concentration (DC50) is above 10000 nM.

Take `NC(=O)c1c(-c2ccc(Oc3ccccc3)cc2)nn2c1NCC[C@H]2C1CCN(C(=O)CCCNC(=O)COCCOCCOCCOCCNc2cccc3c2C(=O)N(C2CCC(=O)NC2=O)C3=O)CC1` (stereo partly drawn) [Example 34, (7S)-7-(1-(1-((2-(2,6-dioxopiperidin-3-yl)-1,3-dioxoisoindolin-4-yl)amino)-14-oxo-3,6,9, 12-tetraoxa-15-azanonadecan-19-oyl)piperidin-4-yl)-2-(4-phenoxyphenyl)-4,5,6,7-tetrahydropyrazolo[1,5-a]pyrimidine-3-carboxamide]: it took 1890 nM to reach half-maximal degradation (DC50).

Compound `NC(=O)c1c(-c2ccc(Oc3ccccc3)cc2)nn2c1NCC[C@H]2C1CCN(C(=O)COCCOCCNC(=O)CCCCN2CCN(c3ccc4c(c3)C(=O)N(C3CCC(=O)NC3=O)C4=O)CC2)CC1` (stereo partly drawn) [Example 35, (7S)-7-(1-(2-(2-(2-(5-(4-(2-(2,6-dioxopiperidin-3-yl)-1,3-dioxoisoindolin-5-yl)piperazin-1-yl)pentanamido)ethoxy)ethoxy)acetyl)piperidin-4-yl)-2-(4-phenoxyphenyl)-4,5,6,7-tetrahydropyrazolo[1,5-a]pyrimidine-3-carboxamide] showed a DC50 of 326 nM.

Turning to `CN(CCOCCNc1cccc2c1C(=O)N(C1CCC(=O)NC1=O)C2=O)CCC(=O)N1CCC([C@@H]2CCNc3c(C(N)=O)c(-c4ccc(Oc5ccccc5)cc4)nn32)CC1` (stereo partly drawn) [Example 37, (7S)-7-(1-(3-((2-(2-((2-(2,6-dioxopiperidin-3-yl)-1,3-dioxoisoindolin-4-yl)amino)ethoxy)ethyl)(methyl)amino)propanoyl)piperidin-4-yl)-2-(4-phenoxyphenyl)-4,5,6,7-tetrahydropyrazolo[1,5-a]pyrimidine-3-carboxamide], the DC50 stood at 120 nM.

On to `CN(CCNc1cccc2c1C(=O)N(C1CCC(=O)NC1=O)C2=O)CCC(=O)N1CCC([C@@H]2CCNc3c(C(N)=O)c(-c4ccc(Oc5ccccc5)cc4)nn32)CC1` (stereo partly drawn) [Example 38, (7S)-7-(1-(3-((2-((2-(2,6-dioxopiperidin-3-yl)-1,3-dioxoisoindolin-4-yl)amino)ethyl)(methyl)amino)propanoyl)piperidin-4-yl)-2-(4-phenoxyphenyl)-4,5,6,7-tetrahydropyrazolo[1,5-a]pyrimidine-3-carboxamide], for which the DC50 was 371 nM.

Compound `NC(=O)c1c(-c2ccc(Oc3ccccc3)cc2)nn2c1NCC[C@H]2C1CCN(C(=O)CCc2ccc(N3CCN(c4ccc5c(c4)C(=O)N(C4CCC(=O)NC4=O)C5=O)CC3)cc2)CC1` (stereo partly drawn) [Example 40, (7S)-7-(1-(3-(4-(4-(2-(2,6-dioxopiperidin-3-yl)-1,3-dioxoisoindolin-5-yl)piperazin-1-yl)phenyl)propanoyl)piperidin-4-yl)-2-(4-phenoxyphenyl)-4,5,6,7-tetrahydropyrazolo[1,5-a]pyrimidine-3-carboxamide] gave a 50% degradation concentration (DC50) of 74 nM.

For `NC(=O)c1c(-c2ccc(Oc3ccccc3)cc2)nn2c1NCC[C@H]2C1CCN(C(=O)COCCOCCNC(=O)CCCN2CCN(c3ccc4c(c3)C(=O)N(C3CCC(=O)NC3=O)C4=O)CC2)CC1` (stereo partly drawn) [Example 42, (7S)-7-(1-(2-(2-(2-(4-(4-(2-(2,6-dioxopiperidin-3-yl)-1,3-dioxoisoindolin-5-yl)piperazin-1-yl)butanamido)ethoxy)ethoxy)acetyl)piperidin-4-yl)-2-(4-phenoxyphenyl)-4,5,6,7-tetrahydropyrazolo[1,5-a]pyrimidine-3-carboxamide], half-maximal degradation (DC50) was put at 624 nM.

Take `NC(=O)c1c(-c2ccc(Oc3ccccc3)cc2)nn2c1NCC[C@H]2C1CCN(C2CCN(Cc3ccc(C(=O)NCCNc4cccc5c4C(=O)N(C4CCC(=O)NC4=O)C5=O)cc3)CC2)CC1` (stereo partly drawn) [Example 43, (7S)-7-(1′-(4-((2-((2-(2,6-dioxopiperidin-3-yl)-1,3-dioxoisoindolin-4-yl)amino)ethyl)carbamoyl)benzyl)-[1, 4′-bipiperidin]-4-yl)-2-(4-phenoxyphenyl)-4,5,6,7-tetrahydropyrazolo[1,5-a]pyrimidine-3-carboxamide]: the DC50 was above 10000 nM.

For the compound `NC(=O)c1c(-c2ccc(Oc3ccccc3)cc2)nn2c1NCC[C@H]2C1CCN(C(=O)CCCc2ccc(N3CCN(c4ccc5c(c4)C(=O)N(C4CCC(=O)NC4=O)C5=O)CC3)cc2)CC1` (stereo partly drawn) [Example 44, (7S)-7-(1-(4-(4-(4-(2-(2,6-dioxopiperidin-3-yl)-1,3-dioxoisoindolin-5-yl)piperazin-1-yl)phenyl)butanoyl)piperidin-4-yl)-2-(4-phenoxyphenyl)-4,5,6,7-tetrahydropyrazolo[1,5-a]pyrimidine-3-carboxamide], the DC50 was above 10000 nM.

With `NC(=O)c1c(-c2ccc(Oc3ccccc3)cc2)nn2c1NCC[C@H]2C1CCN(C(=O)CCN2CCN(c3ccc(CNC(=O)CNc4cccc5c4CN(C4CCC(=O)NC4=O)C5=O)cc3)CC2)CC1` (stereo partly drawn) [Example 45, (7S)-7-(1-(3-(4-(4-((2-((2-(2,6-dioxopiperidin-3-yl)-1-oxoisoindolin-4-yl)amino)acetamido)methyl)phenyl)piperazin-1-yl)propanoyl)piperidin-4-yl)-2-(4-phenoxyphenyl)-4,5,6,7-tetrahydropyrazolo[1,5-a]pyrimidine-3-carboxamide], the DC50 turned out to be 382 nM.

With `CN(C/C=C/C(=O)N1CCC([C@@H]2CCNc3c(C(N)=O)c(-c4ccc(Oc5ccccc5)cc4)nn32)CC1)CCCCCNc1cccc2c1CN(C1CCC(=O)NC1=O)C2=O` (stereo partly drawn) [Example 46, (7S)-7-(1-((E)-4-((5-((2-(2,6-dioxopiperidin-3-yl)-1-oxoisoindolin-4-yl)amino)pentyl)(methyl)amino)but-2-enoyl)piperidin-4-yl)-2-(4-phenoxyphenyl)-4,5,6,7-tetrahydropyrazolo[1,5-a]pyrimidine-3-carboxamide], the 50% degradation concentration (DC50) was determined as 198 nM.
